Reference: patent US8669267B2, “Pharmaceutical, food or beverage having inhibitory activity on serotonin transporter” (Suntory Holdings Limited, priority 2008, dated 2014)

What was measured:
[1] = tested on: C57BL/6N mice with motivation decreased through open-space swimming; assay: Open-space swimming combined with Morris water maze test (escape-latency); assay type: in vivo
Protocol: The subjects were […] male C57BL/6N mice that had never been subjected to any experiment. At the beginning of the experiment, an average age of the subjects was about 12 weeks old, and an average weight of the subjects was 24.9 g (SD=3.30). The subjects were housed in an acrylic cage in an animal house in which the room temperature was 23° C. and the humidity was 50 to 60%. The inside of the animal house was set such that a light is alternately turned on and off in a 12-hour cycle (light period: from 8:00 AM to 8:00 PM). This experiment was carried out every day at the same time period during the light period. As feedstuff, a dry solid feed (Labo MR manufactured by Nosan Corporation) was fed. The supply of neither feedstuff nor water was limited.
The subjects were divided into 3 groups, and they were named noOS-Vehicle group (group of normal mice) (n=10), OS-(1S,3S)-MTCA-administered group (n=10), and OS-Vehicle group (group of mice having depression) (n=10), respectively.
A circular pool with an inner diameter of 95 cm and a depth of 35 cm was used. The pool was surrounded by white partitions each having a height of 120 cm and a width of 150 cm. […] The place where the escape platform was located was a central part of one of the four evenly-divided fan-shaped quadrants (Quadrant 1 to 4) of a circular water surface, and was determined for each subject. […]

[2] = tested on: γ-crystallin; conditions: cited from earlier work
[3] = molecular target: T1, human serotonin transporter (Homo sapiens, UniProt P31645); assay: [3H] imipramine binding to cell homogenate of CHO cells expressing human serotonin transporter; conditions: 100 μg/mL (1S,3S)-MTCA sample; 2 nM [3H] imipramine; 22° C. for 60 minutes; control = 100
T1 construct: expressed in transfected cells; host or cells: CHO cells, vector pRc/CMV, calcium phosphate transfection
T1 sequence (P31645 whole entry): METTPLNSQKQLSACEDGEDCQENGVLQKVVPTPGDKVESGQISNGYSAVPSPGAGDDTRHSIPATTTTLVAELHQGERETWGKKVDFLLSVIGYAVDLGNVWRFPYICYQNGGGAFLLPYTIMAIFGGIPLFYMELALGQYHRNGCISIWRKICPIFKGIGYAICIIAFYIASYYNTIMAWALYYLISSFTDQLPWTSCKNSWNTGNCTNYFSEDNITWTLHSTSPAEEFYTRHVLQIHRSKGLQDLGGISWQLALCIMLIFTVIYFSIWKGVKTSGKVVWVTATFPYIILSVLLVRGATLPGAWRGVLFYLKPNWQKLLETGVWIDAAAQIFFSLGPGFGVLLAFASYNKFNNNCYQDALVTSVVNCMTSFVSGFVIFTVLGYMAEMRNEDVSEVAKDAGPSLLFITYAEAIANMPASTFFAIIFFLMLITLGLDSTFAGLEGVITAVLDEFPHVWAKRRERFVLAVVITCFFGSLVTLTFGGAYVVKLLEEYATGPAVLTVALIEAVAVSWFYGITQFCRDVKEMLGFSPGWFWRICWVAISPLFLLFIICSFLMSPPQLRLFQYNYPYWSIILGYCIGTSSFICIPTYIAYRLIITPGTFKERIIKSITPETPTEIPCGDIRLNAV
Protocol: A commercially-available (1S,3S)-2,3,4,9-tetrahydro-1-methyl-1H-pyrido[3,4-b]-indole-3-carboxylic acid reagent (manufactured by Wako Pure Chemical Industries, Ltd.) was used as a subject substance ((1S,3S)-MTCA), and the inhibitory effect of (1S,3S)-MTCA on serotonin transporters was determined using a method described in Masahiko T, et al: European Journal of Pharmacology 368 277-283, 1999.
CHO cells were transfected with a secretory vector pRc/CMV, in which cDNA of a human serotonin transporter was incorporated, by a calcium phosphate method. […]
Then, the medium was removed by aspiration to prepare a cell homogenate. […] The concentration of protein in the resulting cell homogenate was measured by a Lowry method using bovine serum albumin (BSA) as a standard.
Thereafter, 25 μL, of (1S,3S)-MTCA solution dissolved in physiological saline (100 μg/mL) and the solution 2 (225 μL) comprising 2 nM [^3H] imipramine were added to a 96-hole microplate, and the cell homogenate (amount of protein: 15 μg) obtained in (1) was added to the microplate, followed by incubation at 22° C. for 60 minutes. […] Non-specific binding of [^3H] imipramine to the cell homogenate was determined using 10 μM imipramine. […]

[4] = tested on: uptake of serotonin in the brain; conditions: cited from earlier work
[5] = molecular target: T2, monoamine oxidase A (Homo sapiens, UniProt P21397); conditions: cited from earlier work
T2 sequence (P21397 1-527): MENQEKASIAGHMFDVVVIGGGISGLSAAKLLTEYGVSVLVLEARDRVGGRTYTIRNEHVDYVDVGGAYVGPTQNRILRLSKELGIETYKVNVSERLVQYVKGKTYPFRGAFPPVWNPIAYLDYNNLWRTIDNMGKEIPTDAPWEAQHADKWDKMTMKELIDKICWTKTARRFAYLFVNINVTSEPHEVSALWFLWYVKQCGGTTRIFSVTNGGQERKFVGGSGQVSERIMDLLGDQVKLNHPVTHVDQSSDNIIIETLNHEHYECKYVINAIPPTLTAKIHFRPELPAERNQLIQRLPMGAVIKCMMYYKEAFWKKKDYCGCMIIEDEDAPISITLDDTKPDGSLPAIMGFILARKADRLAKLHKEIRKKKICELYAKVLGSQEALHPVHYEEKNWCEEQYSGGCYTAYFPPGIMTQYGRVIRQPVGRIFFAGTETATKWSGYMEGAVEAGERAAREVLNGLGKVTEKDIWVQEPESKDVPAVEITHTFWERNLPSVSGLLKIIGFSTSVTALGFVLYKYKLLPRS

[6] = tested on: rats; conditions: forced-swimming tests using rats; cited from earlier work

## C[C@@H]1N[C@H](C(=O)O)Cc2c1[nH]c1ccccc21 [(1S,3S)-MTCA, (1S,3S)-1-methyl-1,2,3,4-tetrahydro-β-carboline-3-carboxylic acid]
[1]; Day 1 of administration, 20 mg/kg orally 60 minutes before training, open-space swimming treated mice, OS-Vehicle 52.6, noOS-Vehicle 44.1
  average escape-latency (average of five trials): 42.7 s
[1]; continuous administration up to Day 10, 20 mg/kg orally every day, FIG. 3
  time taken to reach the escape platform compared with the OS-Vehicle group: decreased significantly
[2]; Fenton reaction using FeCl3
  self-polymerization reaction of γ-crystallin: prevents
[2]
  photopolymerization reaction of γ-crystallin: prevents
[3]
  amount of [3H] imipramine that specifically bound to the cell homogenate (control was 100): 69

## COc1ccc2[nH]c3c(c2c1)CCNC3 [pinoline, 6-methoxy-1,2,3,4-tetrahydro-β-carboline]
[4]
  uptake of serotonin in the brain: inhibits
[5]
  activity of monoamine oxidase A: inhibits
[6]
  immobility time: reduces
